Results published in PubChem BioAssay (NCI).
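Following 48 hours of exposure in 96-well plates, responses at five concentrations were used to interpolate endpoints linearly. TGI denotes the concentration required for complete inhibition of growth.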

Experiments:
Test in all cases: growth of human tumour cells (NCI), 48 h
OVCAR-4 ovarian = system: OVCAR-4 ovarian
CAKI-1 renal = system: CAKI-1 renal
EKVX NSCLC = system: EKVX NSCLC
SNB-78 CNS = system: SNB-78 CNS
NCI-H226 lung = system: NCI-H226 lung
HOP-62 NSCLC = system: HOP-62 NSCLC
XF 498 CNS = system: XF 498 CNS
SN12C renal = system: SN12C renal
A549 NSCLC = system: A549 NSCLC
U251 CNS = system: U251 CNS
LXFL 529 NSCLC = system: LXFL 529 NSCLC
HOP-92 NSCLC = system: HOP-92 NSCLC
NCI-H460 lung = system: NCI-H460 lung
SK-OV-3 ovarian = system: SK-OV-3 ovarian
UACC-257 melanoma = system: UACC-257 melanoma
SK-MEL-5 melanoma = system: SK-MEL-5 melanoma
COLO 205 colon = system: COLO 205 colon
MALME-3M melanoma = system: MALME-3M melanoma
SR leukemia = system: SR leukemia
OVCAR-5 ovarian = system: OVCAR-5 ovarian
HT29 colon = system: HT29 colon
DLD-1 colon = system: DLD-1 colon
SNB-75 CNS = system: SNB-75 CNS
SNB-19 CNS = system: SNB-19 CNS
UO-31 renal = system: UO-31 renal
HL-60(TB) leukemia = system: HL-60(TB) leukemia
RXF 393 renal = system: RXF 393 renal
SK-MEL-28 melanoma = system: SK-MEL-28 melanoma
KM20L2 colon = system: KM20L2 colon
IGROV1 ovarian = system: IGROV1 ovarian
LOX IMVI melanoma = system: LOX IMVI melanoma
HCC-2998 colon = system: HCC-2998 colon
ACHN renal = system: ACHN renal
OVCAR-3 ovarian = system: OVCAR-3 ovarian
KM12 colon = system: KM12 colon
SF-539 CNS = system: SF-539 CNS
SF-295 CNS = system: SF-295 CNS
NCI-H23 lung = system: NCI-H23 lung
HCT-15 colon = system: HCT-15 colon
OVCAR-8 ovarian = system: OVCAR-8 ovarian
HOP-18 NSCLC = system: HOP-18 NSCLC
DMS 114 small cell lung = system: DMS 114 small cell lung
TK-10 renal = system: TK-10 renal
UACC-62 melanoma = system: UACC-62 melanoma
HCT-116 colon = system: HCT-116 colon
M19-MEL melanoma = system: M19-MEL melanoma
M14 melanoma = system: M14 melanoma
K-562 leukemia = system: K-562 leukemia
SF-268 CNS = system: SF-268 CNS
RPMI-8226 leukemia = system: RPMI-8226 leukemia
786-0 renal = system: 786-0 renal
MOLT-4 leukemia = system: MOLT-4 leukemia
SW-620 colon = system: SW-620 colon
A498 renal = system: A498 renal
CCRF-CEM leukemia = system: CCRF-CEM leukemia

Cc1cc(O)c2c3c1C(=O)Oc1c(CO)c(O)c(C(=O)O)c(c1O3)C=NN=Cc1c3c(c(CO)c(O)c1C(=O)O)OC(=O)c1c(C)cc(O)c(c1O3)C=NN=C2
TGI (OVCAR-4 ovarian): > 100 µM
TGI (CAKI-1 renal): > 100 µM
TGI (EKVX NSCLC): > 100 µM
TGI (SNB-78 CNS): > 100 µM
TGI (NCI-H226 lung): > 100 µM
TGI (HOP-62 NSCLC): > 100 µM
TGI (XF 498 CNS): > 100 µM
TGI (SN12C renal): > 100 µM
TGI (A549 NSCLC): > 100 µM
TGI (U251 CNS): > 100 µM
TGI (LXFL 529 NSCLC): > 100 µM
TGI (HOP-92 NSCLC): > 100 µM
TGI (NCI-H460 lung): > 100 µM
TGI (SK-OV-3 ovarian): > 100 µM
TGI (UACC-257 melanoma): > 100 µM
TGI (SK-MEL-5 melanoma): > 100 µM
TGI (COLO 205 colon): > 100 µM
TGI (MALME-3M melanoma): > 100 µM
TGI (SR leukemia): > 1 µM
TGI (OVCAR-5 ovarian): > 100 µM
TGI (HT29 colon): > 100 µM
TGI (DLD-1 colon): > 100 µM
TGI (SNB-75 CNS): > 100 µM
TGI (SNB-19 CNS): > 100 µM
TGI (UO-31 renal): > 100 µM
TGI (HL-60(TB) leukemia): > 1 µM
TGI (RXF 393 renal): > 100 µM
TGI (SK-MEL-28 melanoma): > 100 µM
TGI (KM20L2 colon): > 100 µM
TGI (IGROV1 ovarian): > 100 µM
TGI (LOX IMVI melanoma): > 100 µM
TGI (HCC-2998 colon): > 100 µM
TGI (ACHN renal): > 100 µM
TGI (OVCAR-3 ovarian): 88.1 µM
TGI (KM12 colon): > 100 µM
TGI (SF-539 CNS): > 100 µM
TGI (SF-295 CNS): > 100 µM
TGI (NCI-H23 lung): > 100 µM
TGI (HCT-15 colon): > 100 µM
TGI (OVCAR-8 ovarian): > 100 µM
TGI (HOP-18 NSCLC): > 100 µM
TGI (DMS 114 small cell lung): > 100 µM
TGI (TK-10 renal): > 100 µM
TGI (UACC-62 melanoma): > 100 µM
TGI (HCT-116 colon): > 100 µM
TGI (M19-MEL melanoma): > 100 µM
TGI (M14 melanoma): > 100 µM
TGI (K-562 leukemia): > 1 µM
TGI (SF-268 CNS): > 100 µM
TGI (RPMI-8226 leukemia): > 1 µM
TGI (786-0 renal): > 100 µM
TGI (MOLT-4 leukemia): > 1 µM
TGI (SW-620 colon): > 100 µM
TGI (A498 renal): > 100 µM
TGI (CCRF-CEM leukemia): > 1 µM
